In PubChem BioAssay AID602466 (Sanford-Burnham Center for Chemical Genomics, 2012) one finds activation data, which are given here for 30 compounds.

The target of the assay is Neurotensin receptor type 1 (Homo sapiens) (UniProt P30989). In words: NTR1 agonist calcium signaling, SAR follow-up, cell-based, fluorescence, calcium flux, single concentration (AID 602466). Conditions: NTR1-expressing cells, at 30 µM (top of the series). (Calcium assays in cells follow changes in intracellular calcium, usually with a dye or a luminescent sensor.)

Calls of active or inactive are those of the source. How the calls were made is not given here.

Neurotensin receptor type 1 (Homo sapiens), sequence (P30989 whole entry, looked up): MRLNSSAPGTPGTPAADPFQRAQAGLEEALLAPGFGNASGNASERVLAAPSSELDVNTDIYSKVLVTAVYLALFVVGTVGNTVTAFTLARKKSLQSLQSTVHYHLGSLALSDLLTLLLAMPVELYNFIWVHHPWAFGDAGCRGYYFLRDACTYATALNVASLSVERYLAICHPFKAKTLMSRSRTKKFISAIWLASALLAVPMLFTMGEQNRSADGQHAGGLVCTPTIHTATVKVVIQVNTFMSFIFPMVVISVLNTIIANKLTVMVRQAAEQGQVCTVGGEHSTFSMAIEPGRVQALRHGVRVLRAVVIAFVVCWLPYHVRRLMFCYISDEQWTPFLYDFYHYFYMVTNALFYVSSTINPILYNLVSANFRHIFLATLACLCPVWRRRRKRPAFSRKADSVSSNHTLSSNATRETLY

On to `COc1ccc2c(c1)c1nnc(-c3ccc(F)cc3)c-1cn2Cc1ccccc1`, for which the activation is 10.2% (inactive).

Consider `COc1cc2nc(C)nc(N3CCN(c4ccccc4OC)CC3)c2cc1OC`, for which the activation was 17.5% (inactive).

On to `Cc1cccc(C)c1-c1nc(C(=O)N[C@@H](CC(C)C)C(=O)O)cn1-c1ccnc2cc(Cl)ccc12`, for which the activation is 37.7%.

Turning to `COc1cc2c3nnc(-c4ccc(Cl)cc4)c-3cn(Cc3ccccc3)c2cc1OC`, the activation was 99.2%.

Turning to `COc1cc2nc(-c3ccccc3)nc(N3CCN(c4ccccc4OC)CC3)c2cc1OC`, the activation was 60.6%.

Regarding `COc1cc2c3nnc(-c4ccc(F)cc4)c-3cn(Cc3ccc(C)cc3)c2cc1OC`, the activation was 115%.

Regarding `COc1ccc(-c2nnc3c4cc(OC)c(OC)cc4n(Cc4ccc(C)cc4)cc2-3)cc1`, the activation is 7.03% (inactive).

Take `COc1cc2c3nnc(-c4ccc(F)cc4)c-3cn(Cc3ccccc3N(C)C)c2cc1OC`: the activation was 37.2% (inactive).

Consider `COc1cc2c3nnc(-c4ccc(Cl)cc4)c-3cn(Cc3ccc(F)cc3)c2cc1OC`, for which the activation was 187%.

`COc1cccc(OC)c1-c1nc(C(=O)NC2(C(=O)O)C3CC4CC(C3)CC2C4)cn1-c1ccnc2cc(Cl)ccc12` (stereo not given): the activation was 12.4% (inactive).

Consider `COc1cc2c3nnc(-c4ccc(F)cc4)c-3cn(Cc3ccccc3)c2cc1OC`, for which the activation was 110%.

On to `COc1cc2nc(C3CCC3)nc(N3CCN(c4ccccc4C)CC3)c2cc1OC`, for which the activation was 9.85% (inactive).

On to `COc1cc2c3nnc(-c4ccc(C)cc4)c-3cn(Cc3ccc(F)cc3)c2cc1OC`, for which the activation is 90.8%.

For `COc1ccc2c(c1)c1nnc(-c3ccc(F)cc3)c-1cn2Cc1ccc(F)cc1`, the activation is 39.5% (inactive).

For the compound `COc1ccccc1-c1cc(C(=O)N[C@@H](CC(C)C)C(=O)O)nn1-c1ccnc2cc(Cl)ccc12`, the activation was 11.9%.

On to `COc1cc2c3nnc(-c4ccc(C)c(C)c4)c-3cn(Cc3ccc(F)cc3)c2cc1OC`, for which the activation is 38.2% (inactive).

For `Cc1ccc(Cn2cc3c(-c4ccc(F)cc4)nnc-3c3ccccc32)cc1`, the activation is 9.46% (inactive).

With `COc1cccc(OC)c1-c1nc(C(=O)N[C@@H](CC(C)C)C(=O)O)cn1-c1cccc2ccccc12`, the activation is 110%.

As for `COc1cc2c3nnc(-c4ccc(C)c(C)c4)c-3cn(Cc3ccc(C)cc3)c2cc1OC`, the activation is 131%.

On to `COc1cc2c3nnc(-c4ccc(F)cc4)c-3cn(Cc3ccc(Cl)cc3)c2cc1OC`, for which the activation is 67.8%.

Consider `Cc1ccc(Cn2cc3c(-c4ccc(F)cc4)nnc-3c3cc4c(cc32)OCO4)cc1`, for which the activation is 13.4% (inactive).

As for `COc1cccc(OC)c1-c1cc(C(=O)N[C@@H](CC(C)C)C(=O)O)nn1-c1ccnc2cc(Cl)ccc12`, the activation is 48.7%.

Turning to `COc1cc2c3nnc(-c4ccccc4)c-3cn(Cc3ccccc3)c2cc1OC`, the activation is 55%.

As for `COc1cc2c3nnc(-c4ccc(F)cc4)c-3cn(Cc3ccc(F)cc3)c2cc1OC`, the activation is 95.3%.

For `COc1ccc(Cn2cc3c(-c4ccc(F)cc4)nnc-3c3cc(OC)c(OC)cc32)cc1`, the activation is 56.6%.

As to `COc1cc2c3nnc(-c4ccc(F)cc4)c-3cn(Cc3ccc(OC(F)(F)F)cc3)c2cc1OC`, the activation is 2.56% (inactive).

As for `COc1cc2c3nnc(-c4ccc(C)cc4)c-3cn(Cc3ccc(C)cc3)c2cc1OC`, the activation was 132%.

Consider `COc1cc2c3nnc(-c4ccc(F)cc4)c-3cn(Cc3cccc(C)c3)c2cc1OC`, for which the activation is 191%.

As to `COc1ccc(-c2nc(C(=O)N[C@@H](CC(C)C)C(=O)O)cn2-c2ccnc3cc(Cl)ccc23)c(OC)c1`, the activation was 35.9% (inactive).

`COc1cccc(OC)c1-c1nc(C(=O)N[C@@H](CC(C)C)C(=O)O)cn1-c1ccnc2cc(Cl)ccc12`: the activation is 102%.
